Experimental data reported in article PMC9075979 (Molecular Therapy, 2022).
Where “and” joins values, the source holds several entries; their conditions need not be identical. Equal values may be shown once. Where a name gives a salt, the structure may show the parent alone. Read-outs that look alike come from different tables or passages of the source.

How the values were obtained:
[1] = target: SARS-CoV-2 spike RBD-ACE2 interaction (Homo sapiens, UniProt Q9BYF1); assay: biochemical; assay type: binding; conditions: for IC50: IC50 Biosensor
Sequence of SARS-CoV-2 spike RBD-ACE2 interaction (Q9BYF1 18-740): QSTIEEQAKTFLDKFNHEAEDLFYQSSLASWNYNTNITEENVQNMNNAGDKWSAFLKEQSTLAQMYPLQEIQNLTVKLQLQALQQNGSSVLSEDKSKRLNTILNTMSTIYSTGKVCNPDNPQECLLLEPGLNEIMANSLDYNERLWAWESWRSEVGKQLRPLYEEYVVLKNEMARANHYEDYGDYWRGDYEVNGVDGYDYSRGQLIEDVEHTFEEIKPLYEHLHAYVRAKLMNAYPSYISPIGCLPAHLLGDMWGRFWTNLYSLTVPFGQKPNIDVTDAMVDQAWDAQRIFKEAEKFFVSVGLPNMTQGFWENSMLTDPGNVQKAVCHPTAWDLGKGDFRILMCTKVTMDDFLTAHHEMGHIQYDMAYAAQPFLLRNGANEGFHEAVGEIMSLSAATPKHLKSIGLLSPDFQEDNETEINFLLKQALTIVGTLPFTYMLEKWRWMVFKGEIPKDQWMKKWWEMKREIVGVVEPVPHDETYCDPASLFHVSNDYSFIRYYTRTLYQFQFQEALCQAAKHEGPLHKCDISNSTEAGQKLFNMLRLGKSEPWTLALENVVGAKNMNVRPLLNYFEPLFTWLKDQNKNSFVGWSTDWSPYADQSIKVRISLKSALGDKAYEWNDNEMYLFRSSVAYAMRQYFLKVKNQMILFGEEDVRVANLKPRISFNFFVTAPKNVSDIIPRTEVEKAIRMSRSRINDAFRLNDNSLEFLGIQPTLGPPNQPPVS

[2] = system: SARS-CoV-2 (FR-4286 strain); set-up: species or system K18-hACE2 mice; conditions: mouse, in vivo
recombinant sACE2 = recombinant sACE2 (Homo sapiens, UniProt Q9BYF1); assay type: binding
Sequence of recombinant sACE2 (Q9BYF1 19-607): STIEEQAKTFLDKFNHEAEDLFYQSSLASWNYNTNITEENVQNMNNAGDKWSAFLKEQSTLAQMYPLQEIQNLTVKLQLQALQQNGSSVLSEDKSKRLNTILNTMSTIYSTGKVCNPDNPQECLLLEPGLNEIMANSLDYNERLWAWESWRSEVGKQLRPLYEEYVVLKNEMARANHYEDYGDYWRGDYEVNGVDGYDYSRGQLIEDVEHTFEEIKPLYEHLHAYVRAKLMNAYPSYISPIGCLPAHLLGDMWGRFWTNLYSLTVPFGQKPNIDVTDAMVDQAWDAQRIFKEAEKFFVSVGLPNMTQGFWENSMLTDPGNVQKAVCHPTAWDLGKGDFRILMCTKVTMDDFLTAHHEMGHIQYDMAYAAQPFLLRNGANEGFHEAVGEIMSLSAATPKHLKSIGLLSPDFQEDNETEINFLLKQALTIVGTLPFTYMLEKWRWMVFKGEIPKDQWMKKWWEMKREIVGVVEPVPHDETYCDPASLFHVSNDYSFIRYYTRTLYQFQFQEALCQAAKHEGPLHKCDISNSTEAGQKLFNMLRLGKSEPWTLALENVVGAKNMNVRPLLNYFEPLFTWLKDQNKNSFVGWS

[3] = system: SARS-CoV-2 (strain 291.3 FR-4286); assay type: cell-based
SARS-CoV-2 = assay type: cell-based
[4] = target: S1 domain of SARS-CoV-2 spike-ACE2 interaction (Homo sapiens, UniProt Q9BYF1); assay type: binding
Sequence of S1 domain of SARS-CoV-2 spike-ACE2 interaction (Q9BYF1 18-740): as the sequence (Q9BYF1 18-740) above

wild-type VSV-GFP = assay type: cell-based
Recombinant ACE2 = Recombinant ACE2 (Homo sapiens, UniProt Q9BYF1)
Sequence of Recombinant ACE2 (Q9BYF1 18-805): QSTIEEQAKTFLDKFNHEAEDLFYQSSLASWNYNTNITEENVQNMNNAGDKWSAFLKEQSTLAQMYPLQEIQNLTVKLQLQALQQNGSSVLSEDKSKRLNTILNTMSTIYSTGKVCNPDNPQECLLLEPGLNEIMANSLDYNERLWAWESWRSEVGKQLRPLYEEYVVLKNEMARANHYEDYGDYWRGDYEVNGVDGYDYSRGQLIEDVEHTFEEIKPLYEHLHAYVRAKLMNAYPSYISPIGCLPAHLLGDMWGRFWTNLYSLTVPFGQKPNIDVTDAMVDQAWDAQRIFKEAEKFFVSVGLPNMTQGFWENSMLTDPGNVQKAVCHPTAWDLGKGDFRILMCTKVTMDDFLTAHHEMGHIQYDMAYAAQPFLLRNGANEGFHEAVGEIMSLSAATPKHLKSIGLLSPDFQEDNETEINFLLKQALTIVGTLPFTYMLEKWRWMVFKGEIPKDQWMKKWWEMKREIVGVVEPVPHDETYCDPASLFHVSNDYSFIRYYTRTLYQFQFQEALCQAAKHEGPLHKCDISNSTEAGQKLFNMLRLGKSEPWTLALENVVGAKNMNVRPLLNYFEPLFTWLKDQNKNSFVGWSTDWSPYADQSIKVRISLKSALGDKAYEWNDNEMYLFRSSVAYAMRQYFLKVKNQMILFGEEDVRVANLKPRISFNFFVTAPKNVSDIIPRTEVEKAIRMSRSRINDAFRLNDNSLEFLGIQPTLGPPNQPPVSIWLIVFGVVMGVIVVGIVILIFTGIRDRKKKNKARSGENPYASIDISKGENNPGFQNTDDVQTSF

[5] = system: SARS-CoV-2 VOCs (Alpha, Beta, Delta, cluster5); assay type: cell-based
[6] = rabbit, in vivo; cited from earlier work
[7] = in vivo, 0.016 mg/kg; cited from earlier work
[8] = mouse, in vivo
[9] = target: RBD of SARS-CoV (2002)-ACE2 interaction (Homo sapiens, UniProt Q9BYF1); assay: biochemical; assay type: binding
Sequence of RBD of SARS-CoV (2002)-ACE2 interaction (Q9BYF1 18-740 limits assumed): as the sequence (Q9BYF1 18-740) above

[10] = system: SARS-CoV-2-Spike pseudotyped vesicular stomatitis virus (VSV-GFP-Spike); assay type: cell-based
[11] = system: fusion between spike and ACE2 (HEK293T cells); assay type: cell-based
VSV-Spike (strain 2) = conditions: mouse, in vivo
LATS biosensor = assay type: binding; conditions: 4 μM
wild-type nanoluciferase = wild-type nanoluciferase (Oplophorus gracilirostris, UniProt Q9GV45, A31E/A60N/A81I/F95D/I117V/K70R/L54V/L99Q/M102K/N193R/P142E/Q151K/Q38R/Q45L/V71I/Y165I); assay type: biochemical; conditions: 4 μM
COVID-19 = conditions: cited from earlier work
[12] = Prestwick library screen, 4 μM, compound added to LgBiT-RBD, then SmBiT-ACE2
[13] = Prestwick library screen, 4 μM, compound added to pre-formed RBD:ACE2 complex
[14] = method B, newly purchased drugs, 2–25 μM, Figure 2D
[15] = read-out: inhibition of bioreporter signal, SARS-CoV RBD/ACE2, both methods

## CCOC1O[C@H]([C@@H](COCc2ccccc2)OCc2ccccc2)[C@H](OCc2ccccc2)[C@H]1O (stereo partly drawn) [tribenoside]
[1]; [12]
  reduction in bioreporter signal, method B: −9%
[1]; [13]
  reduction in bioreporter signal, method A: −21%

## c1ccc(-c2ccc(C(c3ccccc3)n3ccnc3)cc2)cc1 (stereo not drawn) [bifonazole]
[1]
  bioreporter complementation, pre-treatment of ACE2 followed by RBD: complete abrogation of bioreporter complementation and luminescence
  concentration inhibiting WT ACE2 binding to the RBD to similar levels as αRBD: 3.29 µM
  reduction in bioreporter signal, method A: −46%
  reduction in bioreporter signal, method B: −51%
  IC50: 1300 nM and 1600 nM
[1]; read-out: peak inhibition, pre-treatment of RBD followed by ACE2
  inhibition at 4 µM: 50%
[1]; read-out: signal inhibition
  inhibition at 3.29 µM: 80%
[2]
  survival: 8 of 11
  weight after infection: lost less weight
Recombinant sACE2
  effect on sACE2 unfolding by urea: stabilizes sACE2
VeroE6 and VeroAT cells; African green monkey
  concentration up to which no overt toxicity: up to 100 μM
[3]
  spike protein levels (immunoblotting): dramatic reduction in spike protein levels
  viral burden by TCID50 assay: reduced
  viral mRNA levels (qPCR): significant reduction in viral mRNA levels
A549-hACE2 cells
  effect on cell viability: no effect on cell viability at the dose tested
SARS-CoV-2
  viral mRNA and infectious particles (TCID50): reduction in viral mRNA as well as infectious particles
[4]
  reduction in binding, ACE2 and S1 domain of spike: ~30%
wild-type VSV-GFP
  WT VSV infection (entry): largely unaffected
  WT VSV plaque size: no effect on WT VSV
Recombinant ACE2
  inhibition of ACE2 enzymatic activity: does not involve inhibition of ACE2 enzymatic activity
[5]
  viral RNA levels of VOCs: significant reduction in output of the VOCs
[6]
  oral doses that could result in embryotoxicity: > 30 mg/kg
[7]
  half-life (t1/2), first phase of biphasic elimination: 7 h
  half-life (t1/2), second phase of biphasic elimination: 42 h
[8]
  tolerability: well tolerated
[9]; read-out: inhibition of luminescence, SARS-CoV RBD/ACE2, method A
  inhibition at 4 µM: 45%
[9]; read-out: inhibition of luminescence, SARS-CoV RBD/ACE2, method B
  inhibition at 4 µM: 22%
[10]
  VSV-Spike plaque size: reduction in VSV-Spike plaque size
  concentration giving spike-specific reduction in viral growth: ~35 µM
  immunofluorescent VSV staining, spike-pseudotyped VSV strains: complete abrogation of VSV staining
  viral entry of pseudotyped VSV-Spike: significant impairment in viral entry
[11]
  fusion of ACE2- and ACE2/TMPRSS2-expressing cells with spike-expressing HEK293T cells: dose-dependent reduction in fusion
VeroE6-hTMPRSS2 cells
  effect on viability: no effect on viability at the antiviral dose tested
VSV-Spike (strain 2)
  reduction in pY705-Stat3 in the lungs: ~50%
  reduction of lethality: 40%
  survival: 2 of 5
  survival of challenged mice: 40%
  viral load in lungs by qRT-PCR: significant reduction in viral load

## Clc1ccccc1C(c1ccccc1)(c1ccccc1)n1ccnc1 [clotrimazole]
[1]; [13]
  reduction in bioreporter signal, method A: −21%

## COc1cc(N)c(Cl)cc1C(=O)NC1CCN(CCCOc2ccc(F)cc2)CC1OC (stereo not drawn) [cisapride]
LATS biosensor
  reduction in luminescence with the LATS biosensor: −13%
[1]; [14]
  IC50: 16500 nM
VeroE6 and VeroAT cells; VeroE6 / VeroAT, 48 h
  toxic at doses of more than: more than 20 μM
wild-type nanoluciferase
  reduction in luminescence with nanoluciferase on its own: not nanoluciferase on its own
[10]
  effect on VSV infection: did not affect VSV infection at all concentrations tested

## CCC(C)n1ncn(-c2ccc(N3CCN(c4ccc(OCC5COC(Cn6cncn6)(c6ccc(Cl)cc6Cl)O5)cc4)CC3)cc2)c1=O (stereo not drawn) [itraconazole]
COVID-19; administered orally, clinical study
  efficacy in hospitalized individuals: no efficacy

## Clc1ccc(COC(Cn2ccnc2)c2ccc(Cl)cc2Cl)cc1 (stereo not drawn) [econazole nitrate, econazole nitrate salt]
[1]; [12]
  reduction in bioreporter signal, method B: −23%
[1]; [13]
  reduction in bioreporter signal, method A: −36%

## CC(=O)N1CCN(c2ccc(OCC3COC(Cn4ccnc4)(c4ccc(Cl)cc4Cl)O3)cc2)CC1 (stereo not drawn) [ketoconazole]
[1]; method B, imidazole comparison, Figure 3B
  IC50: 14500 nM
[1]; [13]
  reduction in bioreporter signal, method A: −29%
[10]
  concentration giving spike-specific reduction in viral growth: ~80 µM

## CC(C)C(=O)OC[C@H]1O[C@@H](n2ccc(NO)nc2=O)[C@H](O)[C@@H]1O [Molnupiravir]
COVID-19; oral treatment, clinical
  reduction of hospitalization or death: 50%

## COC(=O)C1=C(C)NC(C)=C(C(=O)OCCN(C)Cc2ccccc2)C1c1cccc([N+](=O)[O-])c1 (stereo not drawn) [nicardipine, nicardipine HCl]
[1]; [14]
  IC50: 1900 nM
[9]; [15]
  inhibition at 4 µM: 3 to 6%

## C#C[C@]1(O)CC[C@H]2[C@@H]3CCc4cc(O)ccc4[C@H]3CC[C@@]21C [ethynylestradiol, 17a-ethynylestradiol]
[1]; [14]
  IC50: 2600 nM
[9]; [15]
  inhibition at 4 µM: 3 to 6%
